Experiment [1] deals with SW480 cells. The experiment in a line: Cell cycle analysis by propidium iodide flow cytometry. Type of experiment: cell-based, human. The settings on record: SW480, GA IC50 for 24 h. The method, then:
Cell cycle analyses were carried out by flow cytometry with propidium iodide (PI) (P4864, Merck, Darmstadt, Germany). Cells (10^6) were seeded into 10 cm culture dishes and treated with GA IC50 for 24 h or with the vehicle DMSO as control. Cells were then fixed with ice-cold 70% ethanol on ice and stained with 0.04 mg/mL PI and 0.1 mg/mL ribonuclease A (19101, Qiagen, Hilden, Germany). Cell cycle distribution was determined by an analytical DNA flow cytometer (FACSVerse, BD Biosciences) with instrument settings on low mode and FlowJo software v10.
GA is widely present in the plant kingdom and largely found in different food sources. According to its cytotoxic activity (shown above), cell cycle analysis was performed on SW480 cells by FACS with propidium iodide staining (Figure 1C). After GA IC50 treatment for 24 h, the frequency of cells at different stages of the cell cycle changed with respect to non-treated cells (45.34% of cells at G1, 34.16% at S, 7.65% at G2/M). […] To explore this hypothesis, we determined the intracellular localization of nucleolar proteins by immunofluorescence of SW480 cells treated with GA IC50 for 6 h because we had previously observed that some DNA-binding compounds affect nucleolar organization. In particular, we analyzed three proteins that are indicative of nucleolus status, such as nucleolin (NCL), fibrillarin (FBL), and Pol I catalytic subunit A (POLR1A) (Figure 1D).
(In general: A flow cytometer gives signals particle by particle.)

Experiment [2] deals with SW480 cells. The experiment in a line: Resazurin cytotoxic assay, tumoral SW480. Type of experiment: cell-based, human. The settings on record: SW480 primary tumor cells, mean ± SD. The method, then:
CRL1790, SW480 and SW620 cell lines were purchased from American Type Culture Collection (ATCC). Cells were cultured at 37 °C with 5% CO2 atmosphere in medium supplemented with 10% fetal bovine serum (10270106, Gibco, Waltham, MA, USA), 10 mg/mL penicillin, 10 mg/mL streptomycin, […] amphotericin, and 0.03% L-Glutamine as recommended by the ATCC. MEM medium (M5650, Merck, Darmstadt, Germany) was used for non-tumoral CRL1790, and RPMI 1640 medium (L0501-500, Biowest, Nuaillé, France) was used for both tumoral SW480 and SW620 cell lines.
Cytotoxic activity was screened using Resazurin Fluorimetric Assay (R7017, Merck, Darmstadt, Germany), according to the manufacturer’s protocol. Cells seeded into 96-well plates (8 × 10^3 cells/well) were treated for 48 h with phenolic compounds at increasing concentrations from 2 × 10^−5 µM to 100 µM. Negative control with vehicle DMSO was included. Fluorescence was determined using Nanoquant Infinite M200 Pro multi-plate reader (Tecan). Half-maximal inhibitory concentration (IC50) values were determined in triplicate by non-linear regression with Graphpad (Prism).
Natural products such as phenolic compounds have recently attracted significant attention for their anticancer properties. […] We used three different cell lines to mimic CRC progression. In particular, CRL1790 are colon epithelial cells simulating the non-tumoral stage. In addition, SW480 is Dukes’ type B colorectal adenocarcinoma cells representing the primary tumor. Finally, SW620 constitutes Dukes’ type C colorectal adenocarcinoma derived from metastasic site cells to mimic the most aggressive metastasic stage. […] Cytotoxic potency upon 48 h treatment with phenolic compounds was examined by determination of half-maximal inhibitory concentration (IC50) values using the Resazurin method (Table 1). Only GA inhibited cell growth in SW480 and SW620 at clinically-relevant concentrations (IC50 values lower than 30 µM).
For orientation: Alamar Blue is a resazurin reagent that responds to reducing activity.

Experiment [3] deals with CMYC (CD and UV-vis oligonucleotide) (DNA, G4) TGGGGAGGGTGGGGAGGGTGGGGAAGG
The experiment in a line: UV-vis titration at 265 nm. The settings on record: 100 mM KCl, 10 mM potassium phosphate; pH 7.0, 25 °C; 5 µM DNA; GA to 1:20 DNA:GA.

For experiment [4], the target named is 5′ETS G4. The experiment in a line: UV-vis titration, 5′ETS G4. Type of experiment: binding. Particulars: UV-vis titration at 265 nm, 5′ETS G4, 25 °C, pH 7.0; read-out: dissociation constant (Kd). The method, then:
G4-oligonucleotides listed in Supplementary Table S3 were purchased from Integrated DNA Technologies (Clareville, IA, USA). All of them were dissolved in G4s buffer (10 mM potassium phosphate, 100 mM potassium chloride at pH 7.0), heated at 95 °C for 10 min, slowly cooled to RT, and stored at 4 °C.
UV-vis absorption spectra were registered in a Varian Cary 50 UV-vis spectrophotometer at 25 °C. Concentration of the prefolded G4 DNA was 5 μM in G4s buffer (10 mM potassium phosphate buffer containing 100 mM potassium chloride at pH 7.0). Once the DNA was placed in the cuvette, a concentrated solution of GA (1 mM) was routinely added, 1 μL each time, with a Hamilton syringe and subsequently mixed with a pipette. After each addition of the GA solution, a UV-vis spectrum was recorded. In total, 10 μL of GA solution were added, with a final ratio of 1:20 G4 DNA:GA. For the blank, the same experiment with the successive additions was repeated, beginning just with buffer in the cuvette. […] Dissociation constants (Kd) were evaluated at 265 nm using the following equation:(1) A=Am+(Aml-Am)×(M+L+Kd)−(M+L+Kd)^2−4×M×L/2×M where A is the absorbance signal, Am is the signal of DNA in absence of the ligand, Aml is the signal of DNA in presence of the ligand, M is the total concentration of DNA, L is the total concentration of ligand, and Kd is the dissociation constant.

Data on 1 compound can be found in article PMC9179882 (Cancers, 2022).

The structures appear in SMILES notation. Where only a bound is given, the exact number is not on record here.

As to `O=C(O)c1cc(O)c(O)c(O)c1` [Gallic acid, 3,4,5-trihydroxybenzoic acid], in experiment [1] (non-treated 7.65%), the “% of cells at G2/M” value is listed as 14.46%. In experiment [1] (non-treated 34.16%), the “% of cells at S” value worked out at 43.82%. Moreover, the “% of cells at G1” value in experiment [1] (non-treated 45.34%) stood at 28.30%. For the same compound, the IC50 in experiment [2] (Homo sapiens, SW480, 48 h) is under 30 µM; in experiment [2] (48 h) it was 22.4 ± 2.12 µM. Also, the values for the Kd in experiment [3] and in experiment [4] were 113 µM and 148 µM, respectively.

One may read the IC50 as the concentration that gives 50% inhibition. Read a low IC50 as higher potency. What is called Kd is a measure of binding affinity in units of concentration.
